The values that follow are results of earlier work, collected in article PMC8198792, “Prediction of Anticancer Peptides with High Efficacy and Low Toxicity by Hybrid Model Based on 3D Structure of Peptides” (International Journal of Molecular Sciences, 2021).

For the first data set, the system named is erythrocytes. To be noted: Hemolytic peptides dataset HD2; label 1 = hemolytic, 0 = non-hemolytic; ref Hemolytik/SATPdb; cited from earlier work. The text has this: Supplement ijms-22-05630-s001.zip/Hemloytic Peptides(seguence).xlsx, sheet "HD1" | column: Activity || Supplement ijms-22-05630-s001.zip/Hemloytic Peptides(seguence).xlsx, sheet "HD2" | column: Activity || Supplement ijms-22-05630-s001.zip/Hemloytic Peptides(seguence).xlsx, sheet "HD3" | column: Activity
In the case of GFLSILKKVLKVMAHMK [satpdb11385], the Activity is given as 1.

Turning to GIGKFLHSAKKFGKAFVGEIMNS [satpdb11151], the Activity was 1.

Consider GIIKKI [satpdb22209], for which the Activity is on record as 0.

For the substance ILGKLLSTAAkLLSNL [satpdb12605], the Activity is recorded as 1.

Still in this data set, the particulars now being: cited from earlier work.
With “GFKLKGKAKISCLPNGQWSNFPPKCIRECAMVSS [satpdb25464]”, the Activity was 0 and the “Activity (dataset HD1, hemolytic 1 / non-hemolytic 0)” value was 0.

As for “GFLGPLLKLGLKGVAKVIPHLIPSRQQ [satpdb16038]”, the Activity is listed as 1 and the “Activity (dataset HD1, hemolytic 1 / non-hemolytic 0)” value is 1.

Take “GFMDTAKNVAKNVAVTLLDNLKCKITKAC [satpdb14159]”: the Activity is 1 and the “Activity (dataset HD1, hemolytic 1 / non-hemolytic 0)” value is given as 1.

On to “GFWKKVGSAAWGGVKAAAKGAAVGGLNALAKHIQ [satpdb28387]”, for which the Activity was 0 and the “Activity (dataset HD1, hemolytic 1 / non-hemolytic 0)” value is 0.

Take “GGLRSLGRKILRAWKKYGPIIVPIIRIG [satpdb22390]”: the Activity is recorded as 0 and the “Activity (dataset HD1, hemolytic 1 / non-hemolytic 0)” value is given as 0.

For the substance GIHDILKYGKPS [satpdb19051], the Activity is 0 and the “Activity (dataset HD1, hemolytic 1 / non-hemolytic 0)” value is 0.

As to GIIKKIIKKI [satpdb26556], the Activity is given as 0.

In the case of “GILDTLKQFAKGVGKDLVKGAAQGVLSTVSCKLAKTC [satpdb16042]”, the Activity is recorded as 0 and the “Activity (dataset HD1, hemolytic 1 / non-hemolytic 0)” value is listed as 0.

Regarding GKLNLFLSRLEILKLFVGAL [satpdb18533], the Activity was 0 and the “Activity (dataset HD1, hemolytic 1 / non-hemolytic 0)” value is 0.

With “GLFDIIKKIAESFKFSEAIKKIIDFLG [satpdb13437]”, the Activity is listed as 1 and the “Activity (dataset HD1, hemolytic 1 / non-hemolytic 0)” value is 1.

On to GLLSGTSVRGSI [satpdb16160], for which the Activity is on record as 1 and the “Activity (dataset HD1, hemolytic 1 / non-hemolytic 0)” value is 1.

As to “GLWSKIKTAGKSVAKAAAKAAVKAVTNAV [satpdb14676]”, the Activity is listed as 1 and the “Activity (dataset HD1, hemolytic 1 / non-hemolytic 0)” value was 1.

On to GLWSTIKNVGKEAAIAAGKAALGAL [satpdb11818], for which the Activity is 0.

With “GMWSKIKNAGKAAKAAAKAAGKAALGAVSEAM [satpdb14564]”, the Activity was 0 and the “Activity (dataset HD1, hemolytic 1 / non-hemolytic 0)” value was 0.

Take GRDYRTSLTIVQKLKKMVD [satpdb22468]: the Activity is on record as 0 and the “Activity (dataset HD1, hemolytic 1 / non-hemolytic 0)” value is 0.

With GRRRRSVQWCA [satpdb24172], the Activity is on record as 0 and the “Activity (dataset HD1, hemolytic 1 / non-hemolytic 0)” value is listed as 0.

Turning to GSKKPVPIIYANRRTGKAQRM [satpdb20538], the Activity is recorded as 0 and the “Activity (dataset HD1, hemolytic 1 / non-hemolytic 0)” value is recorded as 0.

Consider GSKKPVPIIYCNRRAATGKCQRM [satpdb20782], for which the Activity is on record as 0 and the “Activity (dataset HD1, hemolytic 1 / non-hemolytic 0)” value is reported as 0.

Regarding GWANTLKNVAGGLCKITGAA [satpdb14607], the Activity is 1 and the “Activity (dataset HD1, hemolytic 1 / non-hemolytic 0)” value is on record as 1.

Take GWGSFFKKAAAVGKAVGKAALTAYL [satpdb15739]: the Activity is 1 and the “Activity (dataset HD1, hemolytic 1 / non-hemolytic 0)” value was 1.

In the case of GWGSFFKKAAHVGKHVGKA [satpdb20663], the Activity is 0.

GWGSFFKKAAHVGKHVGKAALT [satpdb28107]: the Activity is 0.

Take GWGSIFKHGRHAAKHIGHAAVNHYL [satpdb11681]: the Activity was 1.

As to GWKKWLRKGAKHLGQAAIK [satpdb12620], the Activity is given as 1.

For the substance GWKSVFRKAKKVGKTVGGLALDHYL [satpdb12845], the Activity is given as 1.

Regarding GWRKWIKKATHVGKHIGKAALDAYI [satpdb10530], the Activity is recorded as 1.

For the substance “HALWMTLLKKVLKAAAKAALNAVLVGANA [satpdb12263]”, the Activity is on record as 1 and the “Activity (dataset HD1, hemolytic 1 / non-hemolytic 0)” value is 1.

Consider HVDKKVADKVLLLKQLRIMRLLTRL [satpdb19920], for which the Activity is reported as 0 and the “Activity (dataset HD1, hemolytic 1 / non-hemolytic 0)” value is recorded as 0.

For HYRIKPTFRRLKWKYKGKFW [satpdb11796], the Activity was 1 and the “Activity (dataset HD1, hemolytic 1 / non-hemolytic 0)” value was 1.

Regarding “IKIPPIVKDTLKKVAKGVLSTIAGALST [satpdb27001]”, the Activity is on record as 0 and the “Activity (dataset HD1, hemolytic 1 / non-hemolytic 0)” value is 0.

As for ILGKLLSTAAKLLSKL [satpdb12927], the Activity is recorded as 1.

For the substance ILGKLLSTAWGLLSNL [satpdb11718], the Activity was 1.

On to ILPLKLPWLPLRR [satpdb11800], for which the Activity is given as 0.

In the case of ILPWKLPLLPLRR [satpdb15320], the Activity is recorded as 0.

On to IPHAVKAISDLI [satpdb15419], for which the Activity was 0.

KAACAAKCLWR [satpdb24099]: the Activity is recorded as 0.

For the substance KAVAAKKSPKKAKKPAT [satpdb19355], the Activity is 0 and the “Activity (dataset HD1, hemolytic 1 / non-hemolytic 0)” value is 0.

As for KIAEKFSGTRRG [satpdb24068], the Activity is 0 and the “Activity (dataset HD1, hemolytic 1 / non-hemolytic 0)” value is recorded as 0.

On to KKAAHVGKHVGKAALTHYL [satpdb21325], for which the Activity is reported as 0.

As to KKAFAAAAAFAAWAAFAKKKK [satpdb16931], the Activity is reported as 0.

Turning to KKFLHSAKKWLKAFVKLKKNW [satpdb15438], the Activity is 1 and the “Activity (dataset HD1, hemolytic 1 / non-hemolytic 0)” value is recorded as 1.

Turning to KKKKKKAAFAAFAAFAA [satpdb24627], the Activity is on record as 0.

Turning to KKKKKKAAFAAWAAFAA [satpdb19804], the Activity was 0.

As for KKKKKKAAFALWAAFAA [compound 1147], the Activity is 1.

For the substance KKKKKKAAFALWLAFAA [compound 1148], the Activity is 1.

For KKKKKKAAFALWLAFLA [compound 1154], the Activity was 1.

For KKKKKKAAFLAWALFAA [compound 1149], the Activity was 1.

As for KKKKKKAAWAAWAAWAA [satpdb17717], the Activity is given as 0.

With KKKKKKALFAAWAAFLA [compound 1151], the Activity is 1.

For the substance KKKKKKALFALWLAFAA [compound 1153], the Activity is listed as 1.

KKKKKKALFALWLAFLA [compound 1155]: the Activity is recorded as 1.

With “KKKKKKKKKKGIGKFLHSAKKFGKAFVGEIMNS [satpdb13667]”, the Activity is reported as 0 and the “Activity (dataset HD1, hemolytic 1 / non-hemolytic 0)” value is given as 0.

As to KKKKKKLLFAAWAAFAA [compound 1152], the Activity is reported as 1.

Take KKLFKKILkYL [satpdb24648]: the Activity is reported as 0.

Staying with this data set, now noted: hemolytic peptides dataset HD3; 1 = hemolytic (positive set), 0 = non-hemolytic (negative set); labels taken from databases; ref Hemolytik/SATPdb; cited from earlier work.
Regarding GFLSILKKVLKVMAHMK [satpdb11385], the Activity is listed as 1.

As to GIGKFLHSAKKFGKAFVGEIMNS [satpdb11151], the Activity is given as 1.

Consider GIIKKI [satpdb22209], for which the Activity is 0.

Regarding “GTPCGESCVYIPCISGVIGCSCTDKVCYLN [satpdb10399]”, the Activity is listed as 1.

For “GVPCGESCVFIPCITGVIGCSCSSNVCYLN [satpdb12922]”, the Activity was 1.

Turning to ILGKLLSTAAkLLSNL [satpdb12605], the Activity is recorded as 1.

The same data set, now with this note: natural hemolytic peptide dataset HD1, label collected from databases; ref Hemolytik [49], SATPdb [34]; cited from earlier work.
For “GTPCGESCVYIPCISGVIGCSCTDKVCYLN [satpdb10399]”, the “Activity (dataset HD1, hemolytic 1 / non-hemolytic 0)” value was 1.

On to “GVPCGESCVFIPCITGVIGCSCSSNVCYLN [satpdb12922]”, for which the “Activity (dataset HD1, hemolytic 1 / non-hemolytic 0)” value was 1.
